Measurements as given in patent US20240043860A1, “NOVEL HYDROXYPHENYLPYRUVATE DIOXYGENASE POLYPEPTIDES AND METHODS OF USE THEREOF” (Syngenta Crop Protection AG, priority 2020, published 2024).
Where “and” joins values, the source holds several entries; their conditions need not be identical. Equal entries are not always repeated.

What was measured:
[1] = tested on: transgenic tobacco plants expressing mutant HPPD SEQ ID NO: 125; test: spray test, herbicidal damage scoring; type: in vivo
[2] = tested on: HPPD variant APESV V209 (SEQ ID NO: 18); test: coupled HGO assay; type: biochemical, Apera spica-venti
Experimental: (§1) DNA sequences (SEQ ID NOs: 65-118, 128, 130, 131, and 133), synthesized for expression in E. coli, by GeneWiz (USA) to encode HPPD variants (SEQ ID NOs: 5-58, 122, 124, 125 and 127) derived from either Avena sativa (SEQ ID NOs: 122, 124), Alopecurus myosuroides (SEQ ID NO: 126) or Apera spica-venti (SEQ ID NOs: 123, 125) were transformed into E coli BL21 (DE3) (New England Biolabs) and grown in 0.5 ml Terrific broth +50 ug/ml Kanamycin media in a 96-deepwell block overnight (37° C., 900rpm). 25 ul of the overnight cultures were inoculated into fresh 96-deepwell block containing 1 ml Formedium Autoinduction Media (AIM). The AIM cultures were grown for 3h at 37° C. (900rpm) and then transferred to 20° C. overnight (900rpm) to allow protein expression. The overnight cultures were centrifuged and 500 ul of Cellytic B (Sigma Aldrich) was added to resuspend the cell pellets. The coupled HGO assay (Siehl et al, 2014) is used to generate IC50 values for the HPPD variants of interest.
(§2) E. coli BL21 (DE3) cells were transformed with a pET24a vector containing a C-terminally his-tagged Arabidopsis HGO gene, grown and induced overnight as described for the HPPD variants above. The cell pellet was resuspended in phosphate buffered saline at pH 7.4 containing 10% Glycerol, 1mm Tris[2-carboxyethyl] phosphine-HCl (TCEP) plus 30 mM Imidazole and lysed using lysozyme/benzonase. The extract was clarified by low speed centrifugation and purified in the same buffer down a 1 ml His Gravitrap column. The bound HGO was eluted in 0.25M imidazole and the fractions pooled and beaded into liquid nitrogen. All procedures apart from the centrifugation and beading steps were carried out under a nitrogen atmosphere.
(§3) The coupled HGO assay is carried out by adding 10 ul of HPPD extract to a 96-well plate and then adding 40 ul of reaction buffer (50 mM Bis Tris Propane, pH7.0, 25 mM sodium-L-ascorbate, 400μM mercaptoethanol, 50 μM Fe(II)SO4). The plates are left to incubate for 5 minutes on ice. […] 200 ul of HPP/HGO (197 μM hydroxyphenylpyruvic acid, 16 μl/ml Homogentisic Acid Oxidase in reaction buffer as described above) buffer is then added to the well and the reaction is regularly monitored (e.g. every 30 seconds-5 minutes) for absorbance at 330 nm for a given time period (e.g., for between 15-60 minutes). The data can then be used to calculate the IC50 value for each HPPD variant of interest.

[3] = tested on: HPPD variant APESV V200 (SEQ ID NO: 6); test: coupled HGO assay; type: biochemical, Apera spica-venti
Experimental: as §1, §2, §3

[4] = tested on: transgenic tobacco plants expressing mutant HPPD SEQ ID 20; test: spray test, herbicidal damage scoring; type: in vivo; details: several events expressing SEQ ID 20; 800 g/ha (Table 3.3)
Experimental: Avena sativa HPPD or orthologues and variants thereof, for example SEQ IDs 1-63 and 122-127, were expressed in transgenic tobacco. DNA sequences that encode these polypeptides (optimized for tobacco or, optionally, codon optimized according to a target crop such as soybean) were prepared synthetically. Each sequence was designed to include a 5′ fusion with TMV omega 5′ leader sequence such that they are flanked at the 5′ end with XhoI and at the 3′ end with KpnI to facilitate direct cloning into a suitable binary vector for Agrobacterium-based plant transformation. […]
Plants are assessed for damage and scored at, for example, 7 and 14 days after treatment (DAT). […]
Plants of events showing the least damage are grown to flowering, then bagged and allowed to self. […] Single copy events amongst the Ti plant lines are identified by their 3:1 segregation ratio (with respect to kanamycin and/or herbicide) and by quantitative RT-PCR. […] HPPD expression levels were monitored by Western analysis.
The tobacco lines expressing SEQ ID 122 were now compared to a population of tobacco which express SEQ ID 20. The plants were sprayed with 800g/ha Bicyclopyrone and scored for damage.

[5] = tested on: HPPD variant APESV V208 (SEQ ID NO: 15); test: coupled HGO assay; type: biochemical, Apera spica-venti
Experimental: as §1, §2, §3

Compound: COc1ccc(-n2nc(C)cc(C(=O)C3C(=O)CCCC3=O)c2=O)cc1OC [Herbicide C, dioxopyritrione]
- tolerance ([1]; SEQ ID 125 plants, 100 g/ha (Table 3.4)): display tolerance
- herbicidal damage scoring, Herbicide C (200 g/ha) ([1]; Table 3.4, 14 days after treatment, SEQ ID 125, 100=complete death, 0=no damage, one value per event): 60 and 80 and 75 and 85

Compound: Cn1nnnc1NC(=O)c1ccc(C(F)(F)F)nc1-n1cncn1 [Herbicide D, N-(1-methyltetrazol-5-yl)-2-(1,2,4-triazol-1-yl)-6-(trifluoromethyl)pyridine-3-carboxamide]
- IC50 [2]: 95 µM
- IC50 [3]: 85.9 µM

Compound: bicyclopyrone
- tolerance in comparison to events expressing SEQ ID 122 [4]: increased tolerance
- IC50 [5]: 1 µM
